The numbers were not newly measured in US11241426B2, “Aqueous composition for ophthalmic or nasal administration” (NITTO MEDIC CO., LTD., priority 2017, dated 2022), which cites them from elsewhere.

This data set concerns the target human H1 receptor (Homo sapiens, UniProt P35367).

Chain of human H1 receptor (P35367 whole entry): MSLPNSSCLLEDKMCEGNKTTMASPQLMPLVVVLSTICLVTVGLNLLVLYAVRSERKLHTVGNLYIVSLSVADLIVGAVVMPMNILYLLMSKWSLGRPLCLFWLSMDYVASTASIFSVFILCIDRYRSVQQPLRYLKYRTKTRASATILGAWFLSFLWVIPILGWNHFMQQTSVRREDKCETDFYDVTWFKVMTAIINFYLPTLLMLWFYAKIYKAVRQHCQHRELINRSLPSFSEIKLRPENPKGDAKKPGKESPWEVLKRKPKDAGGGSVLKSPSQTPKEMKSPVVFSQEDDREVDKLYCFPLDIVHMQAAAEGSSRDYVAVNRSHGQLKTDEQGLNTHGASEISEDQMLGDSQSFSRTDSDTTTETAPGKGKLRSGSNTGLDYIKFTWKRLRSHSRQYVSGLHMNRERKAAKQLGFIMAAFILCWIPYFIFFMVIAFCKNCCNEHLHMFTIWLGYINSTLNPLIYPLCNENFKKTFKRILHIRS

For the compound `O=C(O)COCCN1CCN([C@H](c2ccccc2)c2ccc(Cl)cc2)CC1` [Levocetirizine], where the note is “relative to cetirizine”, the “affinity for the human H1 receptor, fold higher than that of cetirizine” value is “about 2 fold”. In addition, the “affinity for the human H1 receptor, fold higher than that of the S-enantiomer, dextrocetirizine” value (relative to dextrocetirizine) is on record as “about 30 fold”.
